Results on 7 compounds are retold here after patent publication US20090124631A1, “Combination Therapy” (priority 2007, published 2009).

A value given as a limit tells only on which side of the number the result lay.

What is called IC50 is the concentration that gives 50% inhibition.

Type in all cases: biochemical
In assay [1] the target is T1, HDAC7 (Homo sapiens, UniProt Q8WUI4).
T1 construct: cDNAs encoding truncated versions of HDAC4, 5 and 7 encompassing their deacetylase domains; hexahistidine (N); made in house; host or cells: Sf-9 insect cells (baculovirus)
T1 sequence (Q8WUI4 512-865 limits assumed): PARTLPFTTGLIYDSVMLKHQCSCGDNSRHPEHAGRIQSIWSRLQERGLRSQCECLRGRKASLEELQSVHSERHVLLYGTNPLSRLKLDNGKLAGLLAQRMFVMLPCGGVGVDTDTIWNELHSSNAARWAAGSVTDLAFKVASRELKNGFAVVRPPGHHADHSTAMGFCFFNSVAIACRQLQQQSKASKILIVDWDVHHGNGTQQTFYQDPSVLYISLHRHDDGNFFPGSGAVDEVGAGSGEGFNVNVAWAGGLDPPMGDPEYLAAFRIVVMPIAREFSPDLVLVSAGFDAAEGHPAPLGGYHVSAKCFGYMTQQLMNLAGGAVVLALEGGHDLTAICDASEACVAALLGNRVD
Put plainly: Fluorescence-based HDAC enzyme assay, recombinant HDAC7. Particulars: recombinant human HDAC enzyme in vitro; read-out: IC50 (μM) HD7. From the text: (§1) cDNAs of human HDAC1-8 and 11 were generated by RT-PCR reactions using primers complementary to the 5′ and 3′ coding sequence of human HDAC gene sequences in GenBank. cDNAs corresponding to the full length human HDAC1, 2, 3 and 11 were cloned into pBlueBac4.5 vector (Invitrogen). The constructs were used to generate recombinant baculoviruses using the Bac-N-Blue™ DNA according to the manufacturer's instructions (Invitrogen). The recombinant HDAC1, 2, 3, 11 proteins produced harbor a FLAG tag at their C-termini. cDNAs encoding truncated versions of HDAC4, 5 and 7 encompassing their deacetylase domains were cloned into pDEST10 as an N-terminal hexahistidine fusion protein and recombinant baculoviruses were generated using the Bac-to-Bac™ Baculovirus expression system (Invitrogen). HDAC6 and 8 were cloned as full length N-terminally His-tagged protein. All HDAC proteins were expressed in insect Sf-9 cells (Spodoptera frugiperdai) upon infection with recombinant baculovirus. HDAC1 enzyme was purified from the Q-sepharose FF column (Amersham Pharmacia Biotech, Baie d'Urfe QC, Canada) followed by an anti-FLAG immunoaffinity column (Sigma). HDAC2, 3 and 11 were purified using Flag-antibody immunoaffinity purification. HDAC4, 5, 6, 7 and 8 were purified using either Ni-NTA resin (QIAGEN Mississauga ON, Canada) or His-Select resin (Sigma) with step washes and elution with different concentrations of imidazole in Buffer containing 25 mM Tris (or NaPO4) pH 8.0, 10% glycerol and 150 mM or 500 mM NaCl.
(§2) Recombinant HDAC enzymes were incubated with diluted compounds in assay buffer (25 mM Hepes, pH 8.0, 137 mM NaCl, 1 mM MgCl2 and 2.7 mM KCl) for 10 minutes at ambient temperatures in black 96-well plate. Boc-Lys(Ac)-AMC (for HDAC1, 2, 3, 6, and 8 enzymes), which was purchased from Bachem Biosciences Inc., (King of Prussia, Philadelphia) were added into enzyme-compound mixture and incubated at 37° C. For HDAC4, 5, 7 assays, Boc-Lys(TFA)-AMC, which was synthesized in house, was used as substrate and 0.1% BSA was added to the buffer. […] Reaction time was predetermined to ensure that reaction was linear for the incubation time. Reaction was stopped by adding a freshly prepared trypsin (1 mg/ml final concentration) with 1 μM TSA (Biomol) in assay buffer. After 30 minutes, fluorescence was measured using a fluorometer (SPECTRAMAX GeminiXS, Molecular Devices, Sunnylvale, Calif.). The 50% inhibitory concentrations (IC50) for inhibitors were determined by analyzing dose-response inhibition curves.

Assay [2] has as its target T2, HDAC5 (Homo sapiens, UniProt Q9UQL6).
T2 construct: cDNAs encoding truncated versions of HDAC4, 5 and 7 encompassing their deacetylase domains; hexahistidine (N); made in house; host or cells: Sf-9 insect cells (baculovirus)
Kind of assay: Fluorescence-based HDAC enzyme assay, recombinant HDAC5. The settings on record: recombinant human HDAC enzyme in vitro; read-out: IC50 (μM) HD5.
Excerpt: as §1, §2

Assay [3] addresses T3, HDAC4 (Homo sapiens, UniProt P56524).
T3 construct: cDNAs encoding truncated versions of HDAC4, 5 and 7 encompassing their deacetylase domains; hexahistidine (N); made in house; host or cells: Sf-9 insect cells (baculovirus)
Put plainly: Fluorescence-based HDAC enzyme assay, recombinant HDAC4. Particulars: recombinant human HDAC enzyme in vitro; read-out: IC50 (μM) HD4.
Excerpt: as §1, §2

In assay [4] the test system is recombinant human HDAC enzymes. Kind of assay: HDAC isotype selectivity across recombinant HDAC enzymes. Particulars: from Table 1.
Excerpt: as §1, with “HDAC2, 3 and 11 were purified using Flag-antibody immunoaffinity purification.” left out
as §2, with “Boc-Lys(Ac)-AMC” for “Recombinant HDAC enzymes were incubated with diluted compounds in assay buffer (25 mM Hepes, pH 8.0, 137 mM NaCl, 1 mM MgCl2 and 2.7 mM KCl) for 10 minutes at ambient temperatures in black 96-well plate. Boc-Lys(Ac)-AMC”, “Calif.).” for “Calif.). The 50% inhibitory concentrations (IC50) for inhibitors were determined by analyzing dose-response inhibition curves.”

Assay [5] deals with T4, HDAC1 (Homo sapiens, UniProt Q13547).
T4 construct: cDNAs corresponding to the full length human HDAC1, 2, 3 and 11 were cloned into pBlueBac4.5 vector; FLAG (C); made in house; host or cells: Sf-9 insect cells (baculovirus)
T4 sequence (Q13547 whole entry): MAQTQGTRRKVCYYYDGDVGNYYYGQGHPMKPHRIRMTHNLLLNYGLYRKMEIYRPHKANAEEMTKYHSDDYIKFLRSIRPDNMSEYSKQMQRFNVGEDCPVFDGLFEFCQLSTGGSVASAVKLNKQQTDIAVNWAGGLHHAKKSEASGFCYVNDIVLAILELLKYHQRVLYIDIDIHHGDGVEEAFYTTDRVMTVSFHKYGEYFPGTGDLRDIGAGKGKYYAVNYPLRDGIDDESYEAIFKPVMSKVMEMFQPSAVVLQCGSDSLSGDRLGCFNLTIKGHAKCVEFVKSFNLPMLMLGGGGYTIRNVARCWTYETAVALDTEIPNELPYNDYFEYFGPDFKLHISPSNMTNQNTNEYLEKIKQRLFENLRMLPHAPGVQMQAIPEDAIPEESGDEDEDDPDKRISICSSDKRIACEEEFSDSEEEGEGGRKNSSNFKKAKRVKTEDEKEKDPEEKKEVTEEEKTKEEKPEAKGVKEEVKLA
Put plainly: Fluorescence-based HDAC enzyme assay, recombinant HDAC1. Particulars: recombinant human HDAC enzyme in vitro; read-out: IC50 (μM) HD1.
Excerpt: as §1, with “HDAC2, 3 and 11 were purified using Flag-antibody immunoaffinity purification.” left out
as §2, with “Boc-Lys(Ac)-AMC” for “Recombinant HDAC enzymes were incubated with diluted compounds in assay buffer (25 mM Hepes, pH 8.0, 137 mM NaCl, 1 mM MgCl2 and 2.7 mM KCl) for 10 minutes at ambient temperatures in black 96-well plate. Boc-Lys(Ac)-AMC”, “Calif.).” for “Calif.). The 50% inhibitory concentrations (IC50) for inhibitors were determined by analyzing dose-response inhibition curves.”

T3 sequence (P56524 655-1084 limits assumed): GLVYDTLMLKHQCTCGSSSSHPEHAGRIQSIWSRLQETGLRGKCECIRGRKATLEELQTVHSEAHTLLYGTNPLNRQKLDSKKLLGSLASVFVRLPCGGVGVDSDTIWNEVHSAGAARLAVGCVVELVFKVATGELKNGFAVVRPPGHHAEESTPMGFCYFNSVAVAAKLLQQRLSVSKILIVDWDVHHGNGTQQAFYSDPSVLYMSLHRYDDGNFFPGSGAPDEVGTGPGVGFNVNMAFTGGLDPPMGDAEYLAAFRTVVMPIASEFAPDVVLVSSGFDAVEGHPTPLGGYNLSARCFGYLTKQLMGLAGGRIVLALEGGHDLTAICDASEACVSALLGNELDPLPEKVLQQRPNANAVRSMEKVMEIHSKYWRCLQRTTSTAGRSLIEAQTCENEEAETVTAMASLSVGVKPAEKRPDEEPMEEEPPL
T2 sequence (Q9UQL6 684-1028 limits assumed): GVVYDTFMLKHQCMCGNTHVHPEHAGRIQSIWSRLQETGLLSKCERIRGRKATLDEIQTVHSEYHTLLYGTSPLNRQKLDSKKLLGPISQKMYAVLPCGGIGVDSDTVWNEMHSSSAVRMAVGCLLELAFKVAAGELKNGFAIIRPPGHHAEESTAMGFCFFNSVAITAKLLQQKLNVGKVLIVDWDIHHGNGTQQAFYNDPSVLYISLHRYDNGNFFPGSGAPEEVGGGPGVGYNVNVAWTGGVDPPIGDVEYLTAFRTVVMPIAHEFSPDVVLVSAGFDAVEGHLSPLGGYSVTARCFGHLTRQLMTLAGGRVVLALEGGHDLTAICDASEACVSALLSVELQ

`Nc1ccccc1NC(=O)c1ccc(CNc2nccc(-c3cccnc3)n2)cc1` [Compound A]: the IC50 in assay [1] and in assay [2] was over 10 µM each time.
Take `Nc1ccccc1NC(=O)c1ccc(N2CC[C@H](Nc3cccnc3)C2)cc1` [Compound B]: the IC50 is over 10 µM in assay [3], 0.2 µM in assay [5], over 10 µM in assay [1] and over 10 µM in assay [2]. For the same compound, the HDAC isotype selectivity result in assay [4] was “selective inhibitors of HDAC1, 2 and 3”.
Turning to `Nc1ccc(-c2ccccc2)cc1NC(=O)c1ccc(N2CC[C@H](N)C2)cc1` [Compound D], the IC50 in assay [3] is over 10 µM; in assay [5], 0.04 µM; in assay [1], over 10 µM; in assay [2], over 10 µM. The HDAC isotype selectivity entry in assay [4] was “selective for HDAC1 and HDAC 2”.
As to `Nc1ccc(-c2ccccc2)cc1NC(=O)c1ccc(N2CCC(N)CC2)cc1` [Compound E], the IC50 is over 10 µM in assay [3], 0.02 µM in assay [5], over 10 µM in assay [1] and over 10 µM in assay [2]. Besides, the HDAC isotype selectivity result in assay [4] was “selective for HDAC1 and HDAC 2”.
In the case of `CN1CCN(c2ccc(C(=O)Nc3cc(-c4ccccn4)ccc3N)cc2)CC1` [Compound F], the IC50 is over 10 µM in assay [3], 0.1 µM in assay [5], over 10 µM in assay [1] and over 10 µM in assay [2]. Moreover, in assay [4], the HDAC isotype selectivity result is “selective for HDAC1 and HDAC 2”.
As for `CN1CCN(c2ccc(C(=O)Nc3cc(-c4ccncc4)ccc3N)cc2)CC1` [Compound G], the IC50 in assay [3] was over 10 µM; in assay [5] it was 0.06 µM; in assay [1], over 10 µM; in assay [2], over 10 µM. Besides, in assay [4], the HDAC isotype selectivity result was “selective for HDAC1 and HDAC 2”.
Consider `CC(C)N1CCN(c2ccc(C(=O)Nc3cc(-c4ccncc4)ccc3N)cc2)CC1` [Compound H], for which the IC50 in assay [3] was over 10 µM; in assay [5] it was 0.06 µM; in assay [1] it was over 10 µM; in assay [2], over 10 µM. For the same compound, in assay [4], the HDAC isotype selectivity entry is “selective for HDAC1 and HDAC 2”.
